Test results from patent publication US20220378923A1, “BET DEGRADER” (KYOWA KIRIN CO., LTD., priority 2019, published 2022).

Target: T1, interaction between BRD2 and E3 ligase DCAF16 (Homo sapiens, UniProt P25440)
T1 construct: expressed in transfected cells; host or cells: HEK293
Assay: Verification of BET-DCAF16 interaction, NanoBRET in HEK293 cells (Test Example 7)
Assay type: cell-based
Conditions: test compound 10 μmol/L, 2 hours; HEK293 cells expressing Nluc-BRD2 and DCAF16-HaloTag; bortezomib; average of n=3
Protocol: HEK293 cells (ATCC® CRL-1573™) were cultured using a carbon dioxide gas incubator (95% air, 5% CO2) at 37° C. in DMEM, High Glucose, Pyruvate (DMEM: Code No. 11995073, Thermo Fisher Scientific) in which inactivated fetal bovine serum (FBS: Code No. 10099-148 (Thermo Fisher Scientific) was added in an amount to give a final concentration of 10 vol %. A Falcon® 100 mm×20 mm cell culture dish (Code No. 353003, CORNING) was used for cell culture.
A sequence encoding BRD2 was cleaved from pFN21AB3863 (Code No. FHC01342, Kazusa Genome Technologies) using Flexi Enzyme Blend (SgfI and PmeI) (Code No. R1852, Promega) and recombined with pFN31A Nluc CMV-Hygro Flexi® Vector (Code No. N131A, Promega) similarly cleaved using Flexi Enzyme Blend (SgfI and PmeI) to prepare a plasmid pFN31A_BRD2 expressing BRD2 with an Nluc tag added to the N-terminal. A sequence encoding DCAF16 having sgfI and pmeI restriction enzyme sites at both ends was amplified and purified by polymerase chain reaction using two primers, […] (SEQ ID NO: 4) and […] (SEQ ID NO: 5) from cDNA derived from HEK293 cells. Cleavage was performed using Flexi Enzyme Blend (SgfI and PmeI), and pFC27K HaloTag® CMV-neo Flexi® Vector (Code No. G8431, Promega) cleaved using Carboxy Flexi Enzyme Blend (Sgf I and EcoICR I) (Code No. R1901, Promega) was recombined to prepare a plasmid pFC27K_DCAF16 expressing DCAF16 with HaloTag added to the C-terminal. Sequencing was performed and confirmed that the sequence encoding DCAF16 matched NM_001345880.
Cultured HEK293 cells were washed with DPBS, no calcium, no magnesium (DPBS: Code No. 14190144, Thermo Fisher Scientific) and harvested using TrypLE™ Express Enzyme (1×), phenol red (TrypLE: Code No. 12605036, Thermo Fisher Scientific), and prepared to be 4.0×10^5 cells/mL in DMEM. A volume of 12 mL of the cell suspension was seeded in a Falcon® 100 mm×20 mm cell culture dish and cultured in a carbon dioxide gas incubator at 37° C. for 6 hours. For one dish, 12 μg of pFC27K_DCAF16, 0.12 μg of p FN31A_BRD2, 48 μL of FuGENE® HD Transfection Reagent (Code No. E2312, Promega) were added to 600 μL of Opti-MEM™ I Reduced Serum Medium, no phenol red (Opti-MEM: Code No. 11058021, Thermo Fisher Scientific) and mixed. The mixture was allowed to stand for 15 minutes and added to HEK293 cells. After 20 hours, the cells were washed with DPBS, no calcium, no magnesium, harvested from the dish using TrypLE, and then neutralized in DMEM. After centrifugation, the supernatant was discarded, and the cells were prepared to be 2.2×10^5 cells/mL using Opti-MEM containing 4% FBS. HaloTag® NanoBRET™ 618 Ligand contained in NanoBRET™ Nano-Glo® Detection System (Code No. N1662, Promega) and bortezomib as a proteasome inhibitor were added to be a 1000-fold dilution. In addition, a group was prepared to which DMSO was added instead of HaloTag® NanoBRET™ 618 Ligand. 90 μL of the cell suspension was seeded in CulturPlate-96 (Code No. 6005688, PerkinElmer), and allowed to stand in a carbon dioxide gas incubator at 37° C. for 30 minutes. A volume of 10 mmol/L of a solution of the test compound in DMSO was adjusted to be 100 μmol/L with Opti-MEM, 10 μL of the solution was added to each well, and then the mixture was allowed to stand in a carbon dioxide gas incubator at 37° C. for 2 hours. At this time, all the groups were prepared so that the final concentration of DMSO was 0.1 vol % including the group to which the test compound was not added. NanoBRET™ Nano-Glo® Substrate included in the NanoBRET™ Nano-Glo® Detection System was diluted 100-fold with Opti-MEM. After adding 25 μL of the dilution each and stirring for 30 seconds, measurement was performed with an Emission Filter of 460 nm and 620 nm using EnVision (PerkinElmer). The BRET ratio of 10 μmol/L for each test compound was calculated using the following formula. The experiment was performed by n=3 and the average value was calculated. […]

T1 sequence (P25440 whole entry): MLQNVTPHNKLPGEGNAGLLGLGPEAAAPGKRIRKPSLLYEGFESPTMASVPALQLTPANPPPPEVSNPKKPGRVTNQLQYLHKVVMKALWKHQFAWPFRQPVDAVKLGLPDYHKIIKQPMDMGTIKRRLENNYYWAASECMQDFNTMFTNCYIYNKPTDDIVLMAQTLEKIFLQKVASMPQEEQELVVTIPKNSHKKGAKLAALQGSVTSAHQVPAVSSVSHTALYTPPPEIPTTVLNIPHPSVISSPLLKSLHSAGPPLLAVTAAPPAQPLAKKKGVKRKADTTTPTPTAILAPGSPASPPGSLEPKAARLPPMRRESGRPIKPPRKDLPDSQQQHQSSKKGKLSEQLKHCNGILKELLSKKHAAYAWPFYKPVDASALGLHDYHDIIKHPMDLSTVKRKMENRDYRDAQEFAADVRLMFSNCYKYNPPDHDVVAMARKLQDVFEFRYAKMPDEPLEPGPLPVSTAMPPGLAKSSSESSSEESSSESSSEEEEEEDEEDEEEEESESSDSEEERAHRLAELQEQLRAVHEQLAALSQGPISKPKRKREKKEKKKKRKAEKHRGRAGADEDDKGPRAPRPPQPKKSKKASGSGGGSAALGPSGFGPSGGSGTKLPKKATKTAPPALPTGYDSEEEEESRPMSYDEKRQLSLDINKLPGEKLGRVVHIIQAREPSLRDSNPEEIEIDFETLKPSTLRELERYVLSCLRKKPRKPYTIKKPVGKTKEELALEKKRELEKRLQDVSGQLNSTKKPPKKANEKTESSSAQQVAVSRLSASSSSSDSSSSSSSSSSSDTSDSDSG
T1 sequence (Q9NXF7 whole entry partner): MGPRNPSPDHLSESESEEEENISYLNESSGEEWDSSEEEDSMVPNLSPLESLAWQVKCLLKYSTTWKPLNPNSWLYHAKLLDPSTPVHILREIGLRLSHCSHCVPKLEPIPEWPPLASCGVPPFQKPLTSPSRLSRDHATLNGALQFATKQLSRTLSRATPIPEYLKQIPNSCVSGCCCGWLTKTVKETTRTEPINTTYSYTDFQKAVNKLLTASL

SMILES	BRET Ratio
CCC(=O)N1c2ccccc2[C@H](Nc2ccc(C(=O)NCCCNC(=O)c3ccc(C4=N[C@@H](CC(=O)OC(C)(C)C)c5nnc(C)n5-c5sc(C)c(C)c54)cc3)cc2)C[C@@H]1C [Compound 1h, tert-Butyl 2-[(S)-2,3,9-trimethyl-4-(4-{[3-(4-{[(2S,4R)-2-methyl-1-propionyl-1,2,3,4-tetrahydroquinolin-4-yl]amino}benzamide)propyl]carbamoyl}phenyl)-6H-thieno[3,2-f][1,2,4]triazolo[4,3-a][1,4]diazepin-6-yl]acetate]	6.84
CCC(=O)N1c2ccccc2[C@H](Nc2ccc(C(=O)NCC(=O)CNC(=O)c3ccc(N[C@@H]4C[C@H](C)N(C(=O)CC)c5ccccc54)cc3)cc2)C[C@@H]1C [Compound 1l, N,N′-(2-Oxopropane-1,3-diyl)bis(4-{[(2S,4R)-2-methyl-1-propionyl-1,2,3,4-tetrahydroquinolin-4-yl]amino}benzamide)]	8.03
CCC(=O)N1c2ccccc2[C@H](Nc2ccc(C(=O)NCc3cn(-c4ccc(N[C@@H]5C[C@H](C)N(C(=O)CC)c6ccccc65)cc4)nn3)cc2)C[C@@H]1C [Compound 3a, 4-{[(2S,4R)-2-Methyl-1-propionyl-1,2,3,4-tetrahydroquinolin-4-yl]amino}-N-{[1-(4-{[(2S,4R)-2-methyl-1-propionyl-1,2,3,4-tetrahydroquinolin-4-yl]amino}phenyl)-1H-1,2,3-triazol-4-yl]methyl}benzamide]	8.51
Cc1sc2c(c1C)C(c1ccc(C(=O)NCc3cn(-c4ccc(C5=N[C@@H](CC(=O)OC(C)(C)C)c6nnc(C)n6-c6sc(C)c(C)c65)cc4)nn3)cc1)=N[C@@H](CC(=O)OC(C)(C)C)c1nnc(C)n1-2 [Compound 3b, tert-Butyl 2-[(S)-4-(4-{4-[(4-{(S)-6-[2-(tert-butoxy)-2-oxoethyl]-2,3,9-trimethyl-6H-thieno[3,2-f][1,2,4]triazolo[4,3-a][1,4]diazepin-4-yl}benzamide)methyl]-1H-1,2,3-triazol-1-yl}phenyl)-2,3,9-trimethyl-6H-thieno[3,2-f][1,2,4]triazolo[4,3-a][1,4]diazepin-6-yl]acetate]	6.06
CCC(=O)N1c2ccccc2[C@H](Nc2ccc(C(=O)N3CCn4c(-c5ccc(N[C@@H]6C[C@H](C)N(C(=O)CC)c7ccccc76)cc5)cnc4C3)cc2)C[C@@H]1C [Compound 3e, 1-[(2S,4R)-2-Methyl-4-({4-[3-(4-{[(2S,4R)-2-methyl-1-propionyl-1,2,3,4-tetrahydroquinolin-4-yl]amino}phenyl)-5,6,7,8-tetrahydroimidazo[1,2-a]pyrazine-7-carbonyl]phenyl}amino)-3,4-dihydroquinolin-1(2H)-yl]propan-1-one]	5.96
CCC(=O)N1c2ccccc2[C@H](Nc2ccc(NC(=O)CCCC(=O)Nc3ccc(N[C@@H]4C[C@H](C)N(C(=O)CC)c5ccccc54)cc3)cc2)C[C@@H]1C [Compound 6k, N^1,N^5-Bis(4-(((2S,4R)-2-methyl-1-propionyl-1,2,3,4-tetrahydroquinolin-4-yl)amino)phenyl)glutaramide]	7.07
CCC(=O)N1c2ccccc2[C@H](Nc2ccc(NC(=O)CCCC(=O)NC3CCC(N[C@@H]4C[C@H](C)N(C(=O)CC)c5ccccc54)CC3)cc2)C[C@@H]1C (stereo partly drawn) [Compound 7o, N^1-((1R,4r)-4-(((2S,4R)-2-Methyl-1-propionyl-1,2,3,4-tetrahydroquinolin-4-yl)amino)cyclohexyl)-N^5-(4-(((2S,4R)-2-methyl-1-propionyl-1,2,3,4-tetrahydroquinolin-4-yl)amino)phenyl)glutaramide]	6.69

Results, then the molecule that gave them:

BRET Ratio	SMILES
6.8	CCC(=O)N1c2ccccc2[C@H](Nc2ccc(NC(=O)N3CCN(C(=O)C4CCC(N[C@@H]5C[C@H](C)N(C(=O)CC)c6ccccc65)CC4)CC3)cc2)C[C@@H]1C (stereo partly drawn) [Compound 7p, 4-((1R,4r)-4-(((2S,4R)-2-Methyl-1-propionyl-1,2,3,4-tetrahydroquinolin-4-yl)amino)cyclohexane-1-carbonyl)-N-(4-(((2S,4R)-2-methyl-1-propionyl-1,2,3,4-tetrahydroquinolin-4-yl)amino)phenyl)piperazine-1-carboxamide]
7.27	CCC(=O)N1c2ccccc2[C@H](Nc2ccc(-n3cc(CCNC(=O)[C@H]4CC[C@H](N[C@@H]5C[C@H](C)N(C(=O)CC)c6ccccc65)CC4)nn3)cc2)C[C@@H]1C [Compound 8a, (1R,4r)-4-(((2S,4R)-2-Methyl-1-propionyl-1,2,3,4-tetrahydroquinolin-4-yl)amino)-N-(2-(1-(4-(((2S,4R)-2-methyl-1-propionyl-1,2,3,4-tetrahydroquinolin-4-yl)amino)phenyl)-1H-1,2,3-triazol-4-yl)ethyl)cyclohexane-1-carboxamide]
7.07	CCC(=O)N1c2ccccc2[C@H](Nc2ccc(NC(=O)CNC(=O)N[C@H]3CC[C@H](N[C@@H]4C[C@H](C)N(C(=O)CC)c5ccccc54)CC3)cc2)C[C@@H]1C [Compound 8j, 2-(3-((1R,4R)-4-(((2S,4R)-2-Methyl-1-propionyl-1,2,3,4-tetrahydroquinolin-4-yl)amino)cyclohexyl)ureido)-N-(4-(((2S,4R)-2-methyl-1-propionyl-1,2,3,4-tetrahydroquinolin-4-yl)amino)phenyl)acetamide]
7.6	CCC(=O)N1c2ccccc2[C@H](Nc2ccc(NC(=O)CCCC(=O)NC3CCN(Cc4cc(O)cc(-c5c(C)noc5C)c4)CC3)cc2)C[C@@H]1C [Compound 12c, N^1-(1-(3-(3,5-Dimethylisoxazol-4-yl)-5-hydroxybenzyl)piperidin-4-yl)-N^5-(4-(((2S,4R)-2-methyl-1-propionyl-1,2,3,4-tetrahydroquinolin-4-yl)amino)phenyl)glutaramide]
5.88	CCC(=O)N1c2ccccc2[C@H](Nc2ccc(NC(=O)CCCC(=O)Nc3ccc(Cn4c(C(=O)OCCN(C)C)cc5c4CCCC5=O)cc3)cc2)C[C@@H]1C [Compound 15a, 2-(Dimethylamino)ethyl 1-(4-(5-((4-(((2S,4R)-2-methyl-1-propionyl-1,2,3,4-tetrahydroquinolin-4-yl)amino)phenyl)amino)-5-oxopentanamide)benzyl)-4-oxo-4,5,6,7-tetrahydro-1H-indole-2-carboxylate]
5.99	CCC(=O)N1c2ccccc2[C@H](Nc2ccc(-n3cc(CNC(=O)c4ccc(Cn5c(CC)cc6c5CCCC6=O)cc4)nn3)cc2)C[C@@H]1C [Compound 15f, 4-((2-Ethyl-4-oxo-4,5,6,7-tetrahydro-1H-indol-1-yl)methyl)-N-((1-(4-(((2S,4R)-2-methyl-1-propionyl-1,2,3,4-tetrahydroquinolin-4-yl)amino)phenyl)-1H-1,2,3-triazol-4-yl)methyl)benzamide]
